Data taken from patent US4816459A, “Tetrazolyl-substituted pyrido[1,2-a]pyrimidines and use as SRS-A antagonists” (Tokyo Tanabe Co. Ltd., priority 1985, dated 1989).
In brackets after ≈: the same amount, converted by molar mass. Structures can show the parent of a compound that is named as a salt.

Columns and labels:
[1] = tested on: SRS-A; conditions: Japanese Journal of Allergology 1984; cited from earlier work
[2] = tested on: SRS-A as represented by leukotriene D4; test: Confirmatory experiment: antagonistic effect on SRS-A as represented by leukotriene D4; conditions: confirmatory experiment by the inventors
[3] = tested on: leukotriene D4; test: Antagonistic effect on leukotriene D4 in excised guinea pig terminal ileum (in vitro, inhibition of contraction); assay type: cell-based, guinea pig (male, Hartley strain); conditions: Cavia porcellus, leukotriene D4 0.3 ng/ml, 50% inhibition of contraction
Protocol: Specifically, the terminal ileum was suspended, under aerated conditions, in 10 ml of Tyrode's solution containing 5×10^-7 M atropine and 1×10^-6 M mepyramine. Then, a test compound and leukotriene D4 (manufactured by Wako Junyaku Co., Ltd.) were successively added thereto with an interval of 30 seconds.
Specifically, at varying concentrations of each test compound, the percent inhibition of contraction was calculated from the measured degree of contraction of the ileum according to the following equation: [formula] On the basis of the data thus obtained, a dose-response curve was prepared and used to determine the IC50 value of the test compound.

[4] = tested on: leukotriene D4-induced airway constriction reaction; test: Inhibition of leukotriene D4-induced Type I allergic reaction (airway constriction), Konzett-Rossler procedure, intravenous injection; assay type: in vivo, guinea pig (male, Hartley strain); conditions: Cavia porcellus, 2 min, leukotriene D4 0.5 μg/kg i.v. 2 minutes later, 50% inhibition of airway constriction, read-out: Inhibitory effect on Type I allergic reaction ID50 (intravenous)
Protocol: (§1) Using male guinea pigs of the Hartley strain, weighing about 400 g, in groups of six, the inhibitory effect of the present compounds [I] and physiologically acceptable salts thereof on a Type I allergic reaction induced by leukotriene D4 was tested in two dosage forms (i.e., by intravenous injection and by oral administration) according to the Konzett-Rossler procedure [Naunyn-Schmiederbergs Archiv fur Experimentelle Pathologie und Pharmakologie, Vol. 195, p. 71, 1940]. Specifically, each guinea pig was anesthetized by intraperitoneal administration of 1.5 g/kg of urethane and an incision was made in the neck to expose the trachea. To the exposed trachea was connected a respirator (with a ventilation volume of 5-7 ml, a respiration rate of 70 per minute, and a pulmonary load pressure of 10 cmH2 O; manufactured by Ugo Basile Biological Research Apparatus Co.) by way of a cannula. The volume of air overflowing through the branch of the cannula was measured by means of a Model 7020 Bronchospasm Transducer (manufactured by Ugo Basile Biological Research Apparatus Co.) and recorded with a Model RM-6000 Polygraph (manufactured by Nippon Koden Co., Ltd.).
Intravenous injection tests were carried out as follows: Each guinea pig was treated by intravenous injection of 1 mg/kg of gallamine triethiodide. Then, 20.0 to 6000.0 μg/kg of a test compound and 0.5 μg/kg of leukotriene D4 were successively administered thereto through the cervical vein with an interval of 2 minutes. The volume of air overflowing as a result of the induced airway constriction reaction was measured. The test compound was used in the form of a solution in physiological saline containing sodium hydrogen carbonate or potassium carbonate.
(§2) Both in the intravenous injection tests and in the oral administration tests, leukotriene D4 was used in the form of a solution in physiological saline.
(§3) Both in the intravenous injection tests and in the oral administration tests, the pharmacological effect on the Type I allergic reaction was evaluated in terms of the dose of the test compound at which the airway constriction reaction induced by leukotriene D4 was inhibited by 50% (hereinafter referred to as ID50), provided that ID50 was expressed in μg/kg for the intravenous injection tests and in mg/kg for the oral administration tests. […] On the basis of the data thus obtained, a dose-response curve was prepared and used to determine the ID50 value of the test compound.
(§4) Among the test compounds indicated, the compounds of Examples 1, 6 and 9 used in the intravenous injection tests were prepared according to procedure a described in the respective examples, and those used in the oral administration tests were prepared according to procedure b.

[5] = tested on: leukotriene D4-induced airway constriction reaction; test: Inhibition of leukotriene D4-induced Type I allergic reaction (airway constriction), Konzett-Rossler procedure, oral administration; assay type: in vivo, guinea pig (male, Hartley strain); conditions: Cavia porcellus; oral 90 minutes before anesthesia; leukotriene D4 0.5 μg/kg i.v.; 50% inhibition of airway constriction; read-out: Inhibitory effect on Type I allergic reaction ID50 (oral)
Protocol: as §1
Oral administration tests were carried out as follows: 1 to 30 mg/kg of a test compound was orally administered to each guinea pig 90 minutes before anesthesia with urethane. Then, the anesthetized guinea pig was treated by intravenous injection of 1 mg/kg of gallamine triethiodide and administration of 0.5 μg/kg of leukotriene D4 through the cervical vein. The volume of air overflowing as a result of the induced airway constriction reaction was measured.
as §2, §3, §4

[6] = Acute toxicity (LD50) in mice; conditions: mouse, in vivo, 5-weeks-old male ddY strain mice
Protocol: (§5) The acute toxicity (LD50) of several typical examples of the present compounds [I] and physiologically acceptable salts thereof was tested on 5-weeks-old male ddY strain mice and male SD strain rats. For this purpose, the compounds of Examples 1, 6 and 9 were selected as typical examples. […] For rats, their LD50 values were not less than 4.0 g/kg when administered orally, and not less than 200 mg/kg when administered intravenously.

[7] = Acute toxicity (LD50) in rats; conditions: rat, in vivo, male SD strain rats
Protocol: as §5

[8] = intravenous, read-out: LD50, intravenous, mice
[9] = oral, read-out: LD50, oral, mice
[10] = intravenous, read-out: LD50, intravenous, rats
[11] = oral, read-out: LD50, oral, rats

SMILES	type of SRS-A drug (in words) [1]	antagonistic effect on SRS-A as represented by leukotriene D4 (in words) [2]	IC50 [3] [µg/mL]	ED50 [4] [mg/kg]	ED50 [5] [mg/kg]	LD50 [6, 8] [mg/kg]	LD50 [6, 9] [mg/kg]	LD50 [7, 10] [mg/kg]	LD50 [7, 11] [mg/kg]
Cc1cccn2c(=O)c(-c3nnn[nH]3)cnc12.[K] [Compound TBX, 9-Methyl-3-(1H-tetrazol-5-yl)-4H-pyrido[1,2-a]pyrimidin-4-one potassium salt, reference compound]	belongs to the SRS-A release suppression type	no antagonistic effect	200	≥ 10	–	–	–	–	–
CCCc1c(OCc2cccn3c(=O)c(-c4nnn[nH]4)cnc23)ccc(C(C)=O)c1O [Example 1, 9-[(4-acetyl-3-hydroxy-2-n-propylphenoxy)methyl]-3-(1H-tetrazol-5-yl)-4H-pyrido[1,2-a]-pyrimidin-4-one]	–	–	0.03 (≈ 0.0714 µM)	0.097	9	≥ 100	≥ 4000	≥ 200	≥ 4000
CCCc1c(OCc2ccc3ncc(-c4nnn[nH]4)c(=O)n3c2)ccc(C(C)=O)c1O [Example 2, 7-[(4-acetyl-3-hydroxy-2-n-propylphenoxy)methyl]-3-(1H-tetrazol-5-yl)-4H-pyrido[1,2-a]pyrimidin-4-one]	–	–	0.1 (≈ 0.238 µM)	0.16	–	–	–	–	–
CCCc1c(OCc2ccn3c(=O)c(-c4nnn[nH]4)cnc3c2)ccc(C(C)=O)c1O [Example 3, 8-[(4-acetyl-3-hydroxy-2-n-propylphenoxy)methyl]-3-(1H-tetrazol-5-yl)-4H-pyrido[1,2-a]pyrimidin-4-one]	–	–	0.2 (≈ 0.476 µM)	0.17	–	–	–	–	–
CCCc1c(OCc2cc(Br)cn3c(=O)c(-c4nnn[nH]4)cnc23)ccc(C(C)=O)c1O [Example 4, 9-[(4-acetyl-3-hydroxy-2-n-propylphenoxy)methyl]-7-bromo-3-(1H-tetrazol-5-yl)-4H-pyrido[1,2-a]pyrimidin-4-one]	–	–	1 (≈ 2 µM)	4.9	–	–	–	–	–
CCCc1c(OCc2cc(C)cn3c(=O)c(-c4nnn[nH]4)cnc23)ccc(C(C)=O)c1O [Example 5, 9-[(4-acetyl-3-hydroxy-2-n-propylphenoxy)methyl]-7-methyl-3-(1H-tetrazol-5-yl)-4H-pyrido[1,2-a]pyrimidin-4-one]	–	–	0.8 (≈ 1.84 µM)	–	–	–	–	–	–
CCCc1c(OCc2cccn3c(=O)c(Cc4nnn[nH]4)cnc23)ccc(C(C)=O)c1O [Example 6, 9-[(4-acetyl-3-hydroxy-2-n-propylphenoxy)methyl]-3-[(1H-tetrazol-5-yl)methyl]-4H-pyrido[1,2-a]pyrimidin-4-one]	–	–	0.01 (≈ 0.023 µM)	0.11	10	≥ 100	≥ 4000	≥ 200	≥ 4000
CCCc1c(OCc2ccc3ncc(Cc4nnn[nH]4)c(=O)n3c2)ccc(C(C)=O)c1O [Example 7, 7-[(4-acetyl-3-hydroxy-2-n-propylphenoxy)methyl]-3-[(1H-tetrazol-5-yl)methyl]-4H-pyrido[1,2-a]pyrimidin-4-one]	–	–	0.1 (≈ 0.23 µM)	–	–	–	–	–	–
CCCc1c(OCc2cc(C)cn3c(=O)c(Cc4nnn[nH]4)cnc23)ccc(C(C)=O)c1O [Example 8, 9-[(4-acetyl-3-hydroxy-2-n-propylphenoxy)methyl]-7-methyl-3-[(1H-tetrazol-5-yl)methyl]-4H-pyrido[1,2-a]pyrimidin-4-one]	–	–	0.7 (≈ 1.56 µM)	1.9	–	–	–	–	–
CCCc1c(OCc2cccn3c(=O)c(CCc4nnn[nH]4)cnc23)ccc(C(C)=O)c1O [Example 9, 9-[(4-acetyl-3-hydroxy-2-n-propylphenoxy)methyl]-3-[2-(1H-tetrazol-5-yl)ethyl]-4H-pyrido[1,2-a]pyrimidin-4-one]	–	–	0.005 (≈ 0.0111 µM)	0.038	5	≥ 100	≥ 4000	≥ 200	≥ 4000
CCCc1c(OCc2ccn3c(=O)c(CCc4nnn[nH]4)cnc3c2)ccc(C(C)=O)c1O [Example 10, 8-[(4-acetyl-3-hydroxy-2-n-propylphenoxy)methyl]-3-[2-(1H-tetrazol-5-yl)ethyl]-4H-pyrido[1,2-a]pyrimidin-4-one]	–	–	0.6 (≈ 1.34 µM)	–	–	–	–	–	–
CCCc1c(OCc2cc(Br)cn3c(=O)c(CCc4nnn[nH]4)cnc23)ccc(C(C)=O)c1O [Example 11, 9-[(4-acetyl-3-hydroxy-2-n-propylphenoxy)methyl]-7-bromo-3-[2-(1H-tetrazol-5yl)ethyl]-4H-pyrido[1,2-a]pyrimidin-4-one]	–	–	0.9 (≈ 1.71 µM)	2.9	–	–	–	–	–
CCCc1c(OCc2cccn3c(=O)c(-c4nn[nH]n4)cnc23)ccc(C(C)=O)c1O [Example 12, 9-[(4-acetyl-3-hydroxy-2-n-propylphenoxy)methyl]-3-(1H-tetrazol-5-yl)-4H-pyrido[1,2-a]pyrimidin-4-one potassium salt]	–	–	0.03	0.097	10	–	–	–	–
